In article PMC8292346, “Dysfunction of the key ferroptosis-surveilling systems hypersensitizes mice to tubular necrosis during acute kidney injury” (Nature Communications, 2021):
Where “and” joins values, the source holds several entries; their conditions need not be identical. Identical values can stand only once.

Assays:
NIH3T3 cells [1] = test: Ferroptosis inducers (FINs)/ferroptocide, 7-AAD/annexin V flow cytometry; assay type: cell-based, murine; conditions: individual replicates
NIH3T3 cells [2] = test: as above; assay type: cell-based, murine; conditions: alone (DMSO) or with Fer-1 1 µM, Nec-1s 30 µM, Nec-1f 30 µM
Procedure: (§1) To induce necroptosis in a human cell line, HT29 cells were stimulated at the indicated time points with 20 ng/ml human TNFα (Biolegend), 1 μM SMAC-mimetics (Birinapant, Chemietek), and 20 μM zVAD-fmk (Selleckchem, herein referred to as zVAD). For the induction of necroptosis in NIH3T3 cells, cells were incubated with 20 ng/ml TNF-α and 20 μM zVAD for indicated time points. […] Cells were seeded in six-well plates or petri dishes. […] After indicated time points, cells were collected and prepared for flow cytometry, immunoblotting, and/or LDH release assays.
(§2) Cells were harvested and the pellets were washed twice in PBS and stained with 5 μl of 7-AAD (BD Biosciences) and 5 μl of annexin-V-FITC (BD Biosciences) added to 100 μl annexin-V binding buffer (BD Biosciences). After 15 min, cells were recorded on the LSRII with the FACS Diva 6.1.1 software (BD Biosciences) and subsequently analyzed with the FlowJo v10 software (Tree Star).

NIH3T3 cells [3] = test: Simultaneous ferroptosis and necroptosis (RSL3 plus TZ), 7-AAD/annexin V flow cytometry; assay type: cell-based, murine; conditions: NIH3T3, 16 h
Procedure: as §1, §2

HT1080 cells [4] = test: Ferroptosis inducers (FINs)/ferroptocide, 7-AAD/annexin V flow cytometry; assay type: cell-based, human; conditions: Nec-1s 30 µM, Nec-1f 30 µM; for double-negative events (7-AAD/annexin V): alone (DMSO) or with Fer-1 1 µM
MLKL = test: Western blot of pMLKL (S358) in TSZ-treated HT29 cells; assay type: cell-based, human; conditions: Nec-1s 10 µM, Fer-1 1 µM, Nec-1f 10 µM
Procedure: as §1
(§3) Cells were lysed in ice-cold 10 mM Tris-HCl, pH 7.5, 50 mM NaCl, 1% Triton X-100, 30 mM sodium pyrophosphate, 50 mM NaF, 100 μM Na3VO4, 2 μM ZnCl2, and 1 mM phenylmethylsulfonyl fluoride (PMSF, modified Frackelton buffer) for 30 min on ice. Insoluble material was removed by centrifugation (14 000×g, 30 min, 4 °C). Protein concentration was determined using a commercial Bradford assay kit according to the manufacturer’s instructions (Thermo Fisher). Equal amounts of protein (typically 30 μg per lane) were resolved on a 4%−15% gradient SDS/PAGE gel and transferred to a PVDF membrane (BIO-RAD). Primary antibody incubation was performed for anti-pS166-RIPK1 (Cell Signaling, Cat# 65746, 1:1000 dilution), anti-pS358-MLKL, (Abcam, ab187091, 1:1000 dilution), anti-MLKL (Genetex, GTX107538, 1:1000 dilution) and anti-β-Actin (Cell Signaling, Cat# 3700S, 1:1000 dilution). Secondary antibodies (anti-mouse, HRP-linked antibody, Cell Signaling, Cat# 7076S; anti-rabbit, HRP-linked antibody, Cell Signaling, Cat# 7074S) were applied at concentrations of 1:5.000 (also see Supplementary Table 1 for details). Proteins were then visualized by enhanced chemiluminescence (ECL; Amersham Biosciences).

HT1080 cells [5] = test: CellTiter-Glo luminescent cell viability assay (ATP), dose-response; assay type: cell-based, human
Procedure: Cells were plated in an opaque-walled 96-well plate and treatment with ferroptosis inducers and/or ferroptosis inhibitors was initiated 24 h later. […] Here, the reaction agent was directly added to the wells, mixed on an orbital shaker for 2 min, and then incubated at room temperature for 10 min. The luminescence was detected using a Promega GloMax® instrument.

CD10-135 cells = test: FINs/ferroptocide, LDH release assay; assay type: cell-based, human; set-up: LDH release: unit not given here; conditions: Nec-1f 30 µM
RIPK1 = test: Western blot of pRIPK1 (S166) in TSZ-treated HT29 cells; assay type: cell-based, human; conditions: Nec-1s 10 µM, Fer-1 1 µM, Nec-1f 10 µM
Procedure: as §1, §3

HT29 cells = test: TSZ-induced necroptosis, 7-AAD/annexin V flow cytometry; assay type: cell-based, human; conditions: Nec-1f 10 µM
Procedure: as §1, §2

[6] = system: Mouse cortical tubule cells (MCT); test: FINs/ferroptocide, 7-AAD/annexin V flow cytometry; assay type: cell-based; conditions: MCT, alone (DMSO) or with Fer-1 1 µM, Nec-1s 30 µM, Nec-1f 30 µM
Procedure: as §1, §2

C57Bl/6 N mice = test: Bilateral kidney ischemia-reperfusion injury, severe model (38 min ischemia), survival; conditions: single dose 2 mg/kg body weight before reperfusion

Question: How did the “cells in 7-AAD/annexin V flow cytometry (FigS9b)” value (NIH3T3 cells [1]; Erastin-induced ferroptosis) turn out when `CN1C(=O)NC(Cc2c[nH]c3c(Cl)cccc23)C1=O` (stereo not drawn) [Nec-1s, necrostatin-1s] was run?
Answer: Its value is 17.0% and 14.0% and 10.0%.

Question: What about the “cells in 7-AAD/annexin V flow cytometry (FigS9b)” value (NIH3T3 cells [1]; FIN56-induced ferroptosis) of the same molecule?
Answer: The value was 57.0% and 34.0%.

Question: And the “cells in 7-AAD/annexin V flow cytometry (FigS9b)” value (NIH3T3 cells [1]; FINO2-induced ferroptosis)?
Answer: Its value is 63.0% and 21.0%.

Question: And the “cells in 7-AAD/annexin V flow cytometry (FigS9b)” value (NIH3T3 cells [1]; Ferroptocide-induced cell death)?
Answer: Its value is 80.0% and 5.0%.

Question: And the “cells in 7-AAD/annexin V flow cytometry (FigS9b)” value (NIH3T3 cells [1]; RSL3-induced ferroptosis)?
Answer: Its value is 71.0% and 41.0%.

Question: What about the “double-negative events (7-AAD/annexin V)” value (NIH3T3 cells [2]; NIH3T3, 5 µM erastin 24 h) of the same molecule?
Answer: The value was 10.2% and 2.01% and 4.47% and 2.99%.

Question: What about the “double-negative events (7-AAD/annexin V)” value (NIH3T3 cells [2]; NIH3T3, 10 µM FIN56 24 h) of the same molecule?
Answer: Its value is 88.9% and 92.9% and 90.2%.

Question: What about the “double-negative events (7-AAD/annexin V)” value (NIH3T3 cells [2]; NIH3T3, 10 µM FINO2 24 h) of the same molecule?
Answer: Its value is 6.67% and 1.36% and 2.97% and 1.72% and 7.65% and 9.33%.

Question: And the “Rescue from necrosis induced by RSL3 plus TZ” value (NIH3T3 cells [3])?
Answer: Its value is “fail to rescue”.

Question: What about the “double-negative events (7-AAD/annexin V)” value (HT1080 cells [4]; HT1080, 1.13 µM RSL3 6 h) of the same molecule?
Answer: Its value is 45.5% and 30.5% and 56.9% and 58.4%.

Question: And the “double-negative events (7-AAD/annexin V)” value (HT1080 cells [4]; HT1080, 10 µM FIN56 24 h)?
Answer: The value was 88.1% and 85.1% and 82.1%.

Question: What about the “double-negative events (7-AAD/annexin V)” value (HT1080 cells [4]; HT1080, 10 µM ferroptocide 24 h) of the same molecule?
Answer: Its value is 42.7% and 26.5%.

Question: And the “Inhibition of cell death induction by FINs/ferroptocide” value (HT1080 cells [4]; HT1080, Fer-1 1 µM)?
Answer: Its value is “but not by Nec-1s”.

Question: What about the “Phosphorylation of MLKL (pS358), western blot” value (MLKL) of the same molecule?
Answer: The value was “comparable between Nec-1s and Nec-1f”.

Question: And the “ATP luminescence (CellTiterGlo)” value (HT1080 cells [5]; HT1080 + Erastin, inhibitor concentration 0.01 (unit not given))?
Answer: Its value is 6.2776%.

Question: And the “ATP luminescence (CellTiterGlo)” value (HT1080 cells [5]; HT1080 + Erastin, inhibitor concentration 0.1 (unit not given))?
Answer: Its value is 6.426%.

Question: And the “ATP luminescence (CellTiterGlo)” value (HT1080 cells [5]; HT1080 + Erastin, inhibitor concentration 1 (unit not given))?
Answer: The value was 6.611%.

Question: What about the “ATP luminescence (CellTiterGlo)” value (HT1080 cells [5]; HT1080 + Erastin, inhibitor concentration 10 (unit not given)) of the same molecule?
Answer: Its value is 6.739%.

Question: And the “ATP luminescence (CellTiterGlo)” value (HT1080 cells [5]; HT1080 + Erastin, inhibitor concentration 30 (unit not given))?
Answer: Its value is 13.0792%.

Question: What about the “ATP luminescence (CellTiterGlo)” value (HT1080 cells [5]; HT1080 + Ferroptocide, inhibitor concentration 0.01 (unit not given)) of the same molecule?
Answer: The value was 2.171% and 0.348%.

Question: What about the “ATP luminescence (CellTiterGlo)” value (HT1080 cells [5]; HT1080 + Ferroptocide, inhibitor concentration 0.1 (unit not given)) of the same molecule?
Answer: The value was 7.287% and 1.309%.

Question: What about the “ATP luminescence (CellTiterGlo)” value (HT1080 cells [5]; HT1080 + RSL3, inhibitor concentration 0.01 (unit not given)) of the same molecule?
Answer: The value was 48.9951% and 58.0398%.

Question: And the “ATP luminescence (CellTiterGlo)” value (HT1080 cells [5]; HT1080 + RSL3, inhibitor concentration 0.1 (unit not given))?
Answer: Its value is 48.7049% and 62.3771%.

Question: And the “ATP luminescence (CellTiterGlo)” value (HT1080 cells [5]; HT1080 + RSL3, inhibitor concentration 1 (unit not given))?
Answer: The value was 60.6314% and 81.5005%.

Question: What about the “ATP luminescence (CellTiterGlo)” value (HT1080 cells [5]; HT1080 + RSL3, inhibitor concentration 10 (unit not given)) of the same molecule?
Answer: The value was 61.8212% and 84.0786%.

Question: What about the LDH release (CD10-135 cells; CD10-135, FIN56 alone (FIN) or with Fer-1, Nec-1s) of the same molecule?
Answer: The LDH release was 86.05 and 52.2984 and 63.7092.

Question: What about the LDH release (CD10-135 cells; CD10-135, FINO2 alone (FIN) or with Fer-1, Nec-1s) of the same molecule?
Answer: Its LDH release is 71.57 and 72.5571 and 70.4933.

Question: And the LDH release (CD10-135 cells; CD10-135, RSL3 alone (FIN) or with Fer-1, Nec-1s)?
Answer: The LDH release was 64.62 and 54.5823.

Question: What about the LDH release (CD10-135 cells; CD10-135, erastin alone (FIN) or with Fer-1, Nec-1s) of the same molecule?
Answer: Its LDH release is 93.98 and 95.3511 and 88.9965.

Question: What about the LDH release (CD10-135 cells; CD10-135, ferroptocide alone (FIN) or with Fer-1, Nec-1s) of the same molecule?
Answer: Its LDH release is 100 and 93.4978.

Question: What about the “Phosphorylation of RIPK1 at S166, western blot” value (RIPK1) of the same molecule?
Answer: The value was “prevented phosphorylation at S166 in RIPK1”.

Question: And the “7-AAD/annexin V flow cytometry, source data of bar graph Fig2e” value (HT29 cells; HT29, TSZ (TNFα 20 ng/ml, birinapant 1 µM, zVAD-fmk 20 µM) 16 h)?
Answer: Its value is 77% and 78.7% and 91.4% and 88.7%.

Question: And the “Protection against TSZ-induced necroptosis (7-AAD/annexin V, words)” value (HT29 cells; HT29, TSZ)?
Answer: The value was “maintained double negativity”.

Question: And the “double-negative events (7-AAD/annexin V)” value ([6]; 5 µM erastin 24 h)?
Answer: Its value is 60.5% and 85.4% and 84.9% and 77.6%.

Question: What about the “double-negative events (7-AAD/annexin V)” value ([6]; 10 µM FIN56 24 h) of the same molecule?
Answer: Its value is 93.3% and 88% and 89.2%.

Question: What about the “Survival after severe renal IRI vs vehicle (Kaplan-Meier, words)” value (C57Bl/6 N mice) of the same molecule?
Answer: Its value is “not statistically significant”.
